Data: patent US20150164762A1, “USE OF ETHANOLAMINE PHOSPHATE” (priority 2012, published 2015)

Tested on: BEAS-2B
Experiment: Comprehensive gene expression analysis with Whole Human Genome DNA microarray after EP treatment
Format: cell-based
Description: Cells of the established normal human airway epithelial cell line BEAS-2B were used in the experiment. These cells were expansively cultured in 10% FBS RPMI-1640, and seeded at a density of 1×10^5/cm^2 on a 24-well plate. After 24 hours 0.1% FBS RPMI-1640 was substituted, and EP was administered to a final concentration of 0 or 1 mM (n=4). After 24 hours, the cells were used as the DNA microarray samples. RNA was extracted using a QIAGEN RNeasy Mini Kit. The DNA microarray test was performed using a Whole Human Genome DNA microarray 4×44K (Agilent), and the necessary labeling reagents and the like for the DNA microarray test were all from Agilent. The DNA microarray test data were analyzed statistically with GeneSpring (Agilent) dedicated analysis software, and gene function analysis (Gene Ontology (GO) analysis) was performed based on differential expression. The purpose of the GO analysis is to determine stochastically the degree to which gene sets with statistically significant differential expression correspond to known functional classification gene sets. […] The p-value is calculated according to the following formula.

[1] = probe A_23_P92499, 1 mM EP, 24 h
[2] = probe A_23_P94754, NM_005118, EP vs control
[3] = probe A_23_P94754, 1 mM EP, 24 h
[4] = probe A_23_P104798, NM_001562, EP vs control
[5] = probe A_23_P104881, 1 mM EP, 24 h
[6] = probe A_23_P105138, NM_001752, EP vs control
[7] = probe A_23_P105138, 1 mM EP, 24 h
[8] = probe A_23_P105803, 1 mM EP, 24 h
[9] = probe A_23_P110052, 1 mM EP, 24 h
[10] = probe A_23_P110151, 1 mM EP, 24 h
[11] = probe A_23_P114662, NM_001889, EP vs control
[12] = probe A_23_P115286, 1 mM EP, 24 h
[13] = probe A_23_P118061, 1 mM EP, 24 h
[14] = probe A_23_P118174, 1 mM EP, 24 h
[15] = probe A_23_P122052, NM_001008397, EP vs control
[16] = probe A_23_P122216, NM_002317, EP vs control
[17] = probe A_23_P122216, 1 mM EP, 24 h
[18] = probe A_23_P122775, NM_032730, EP vs control
[19] = probe A_23_P126844, 1 mM EP, 24 h
[20] = probe A_23_P127322, NM_018055, EP vs control
[21] = probe A_23_P127406, NM_018039, EP vs control
[22] = probe A_23_P128050, 1 mM EP, 24 h
[23] = probe A_23_P128215, 1 mM EP, 24 h
[24] = probe A_23_P128230, 1 mM EP, 24 h
[25] = probe A_23_P129313, NM_001159508, EP vs control
[26] = probe A_23_P131588, NM_014482, EP vs control
[27] = probe A_23_P132388, NM_005138, EP vs control
[28] = probe A_23_P134925, 1 mM EP, 24 h
[29] = probe A_23_P135024, 1 mM EP, 24 h
[30] = probe A_23_P135248, NM_006664, EP vs control
[31] = probe A_23_P136116, NM_001004320, EP vs control
[32] = probe A_23_P136493, NM_013962, EP vs control
[33] = probe A_23_P138635, 1 mM EP, 24 h
[34] = probe A_23_P143242, 1 mM EP, 24 h
[35] = probe A_23_P145357, 1 mM EP, 24 h
[36] = probe A_23_P146644, 1 mM EP, 24 h

NCCOP(=O)(O)O [EP, Ethanolamine phosphate]
CIDEC expression log2 [ratio] (probe A_23_P92025, 1 mM EP, 24 h): −0.754
TLR2 expression R*: Ratio to control [1]: 0.632 times
TLR2 expression log2 [ratio] [1]: −0.662
TNFSF15 gene expression, R* ratio to control [2]: 0.399 times
TNFSF15 gene expression, log2 [ratio] [2]: −1.327
TNFSF15 expression R*: Ratio to control [3]: 0.399 times
TNFSF15 expression log2 [ratio] [3]: −1.327
IL18 gene expression, R* ratio to control [4]: 0.641 times
IL18 gene expression, log2 [ratio] [4]: −0.641
ROBO4 expression R*: Ratio to control [5]: 1.785 times
ROBO4 expression log2 [ratio] [5]: 0.836
CAT gene expression, R* ratio to control [6]: 1.505 times
CAT gene expression, log2 [ratio] [6]: 0.589
CAT expression R*: Ratio to control [7]: 1.505 times
CAT expression log2 [ratio] [7]: 0.589
FGF9 expression R*: Ratio to control [8]: 1.606 times
FGF9 expression log2 [ratio] [8]: 0.684
FOXL2 expression R*: Ratio to control [9]: 0.352 times
FOXL2 expression log2 [ratio] [9]: −1.504
ARHGAP24 expression R*: Ratio to control [10]: 1.670 times
ARHGAP24 expression log2 [ratio] [10]: 0.740
CRYZ gene expression, R* ratio to control [11]: 1.632 times
CRYZ gene expression, log2 [ratio] [11]: 0.707
BCL10 expression R*: Ratio to control [12]: 0.542 times
BCL10 expression log2 [ratio] [12]: −0.883
CKLF expression R*: Ratio to control [13]: 1.501 times
CKLF expression log2 [ratio] [13]: 0.586
PLK1 expression R*: Ratio to control [14]: 2.447 times
PLK1 expression log2 [ratio] [14]: 1.291
GPX8 gene expression, R* ratio to control [15]: 1.413 times
GPX8 gene expression, log2 [ratio] [15]: 0.499
LOX gene expression, R* ratio to control [16]: 1.637 times
LOX gene expression, log2 [ratio] [16]: 0.711
LOX expression R*: Ratio to control [17]: 1.637 times
LOX expression log2 [ratio] [17]: 0.711
RTN4IP1 gene expression, R* ratio to control [18]: 1.436 times
RTN4IP1 gene expression, log2 [ratio] [18]: 0.522
TNFRSF25 expression R*: Ratio to control [19]: 0.532 times
TNFRSF25 expression log2 [ratio] [19]: −0.909
NODAL gene expression, R* ratio to control [20]: 0.450 times
NODAL gene expression, log2 [ratio] [20]: −1.154
KDM4D gene expression, R* ratio to control [21]: 1.448 times
KDM4D gene expression, log2 [ratio] [21]: 0.534
BCL2L14 expression R*: Ratio to control [22]: 0.594 times
BCL2L14 expression log2 [ratio] [22]: −0.751
SOCS2 expression R*: Ratio to control [23]: 1.720 times
SOCS2 expression log2 [ratio] [23]: 0.783
NR4A1 expression R: Ratio to control [24]: 0.302 times
NR4A1 expression log2 [ratio] [24]: −1.727
IVD gene expression, R* ratio to control [25]: 1.473 times
IVD gene expression, log2 [ratio] [25]: 0.559
BMP10 gene expression, R* ratio to control [26]: 0.625 times
BMP10 gene expression, log2 [ratio] [26]: −0.678
SCO2 gene expression, R* ratio to control [27]: 1.495 times
SCO2 gene expression, log2 [ratio] [27]: 0.580
BNIP3L expression R*: Ratio to control [28]: 0.633 times
BNIP3L expression log2 [ratio] [28]: −0.661
ARHGEF6 expression R*: Ratio to control [29]: 0.270 times
ARHGEF6 expression log2 [ratio] [29]: −1.889
CCL27 gene expression, R* ratio to control [30]: 0.556 times
CCL27 gene expression, log2 [ratio] [30]: −0.846
TMEM195 gene expression, R* ratio to control [31]: 1.962 times
TMEM195 gene expression, log2 [ratio] [31]: 0.972
NRG1 gene expression, R* ratio to control [32]: 0.646 times
NRG1 gene expression, log2 [ratio] [32]: −0.830
BNIP3 expression R*: Ratio to control [33]: 0.374 times
BNIP3 expression log2 [ratio] [33]: −1.418
CEBPB expression R*: Ratio to control [34]: 0.617 times
CEBPB expression log2 [ratio] [34]: −0.697
BAK1 expression R*: Ratio to control [35]: 0.402 times
BAK1 expression log2 [ratio] [35]: −1.313
ANXA2 expression R*: Ratio to control [36]: 1.673 times
ANXA2 expression log2 [ratio] [36]: 0.742
